Measured values taken from patent publication US20230117470A1, “SUBSTITUTED PYRAZOLE COMPOUNDS AS TOLL RECEPTOR INHIBITORS” (BRISTOL-MYERS SQUIBB COMPANY, priority 2019, published 2023).

Key:
Assay type in all cases: cell-based
[1] = target: T1, human TLR7 (Homo sapiens, UniProt Q9NYK1); experiment: TLR7 inhibition reporter assay (HEK-Blue cells, SEAP reporter, gardiquimod stimulation); details: HEK-Blue cells overexpressing human TLR7, SEAP reporter, gardiquimod 7.5 μM
T1 construct: host or cells: HEK-Blue cells
T1 sequence (Q9NYK1 27-1049): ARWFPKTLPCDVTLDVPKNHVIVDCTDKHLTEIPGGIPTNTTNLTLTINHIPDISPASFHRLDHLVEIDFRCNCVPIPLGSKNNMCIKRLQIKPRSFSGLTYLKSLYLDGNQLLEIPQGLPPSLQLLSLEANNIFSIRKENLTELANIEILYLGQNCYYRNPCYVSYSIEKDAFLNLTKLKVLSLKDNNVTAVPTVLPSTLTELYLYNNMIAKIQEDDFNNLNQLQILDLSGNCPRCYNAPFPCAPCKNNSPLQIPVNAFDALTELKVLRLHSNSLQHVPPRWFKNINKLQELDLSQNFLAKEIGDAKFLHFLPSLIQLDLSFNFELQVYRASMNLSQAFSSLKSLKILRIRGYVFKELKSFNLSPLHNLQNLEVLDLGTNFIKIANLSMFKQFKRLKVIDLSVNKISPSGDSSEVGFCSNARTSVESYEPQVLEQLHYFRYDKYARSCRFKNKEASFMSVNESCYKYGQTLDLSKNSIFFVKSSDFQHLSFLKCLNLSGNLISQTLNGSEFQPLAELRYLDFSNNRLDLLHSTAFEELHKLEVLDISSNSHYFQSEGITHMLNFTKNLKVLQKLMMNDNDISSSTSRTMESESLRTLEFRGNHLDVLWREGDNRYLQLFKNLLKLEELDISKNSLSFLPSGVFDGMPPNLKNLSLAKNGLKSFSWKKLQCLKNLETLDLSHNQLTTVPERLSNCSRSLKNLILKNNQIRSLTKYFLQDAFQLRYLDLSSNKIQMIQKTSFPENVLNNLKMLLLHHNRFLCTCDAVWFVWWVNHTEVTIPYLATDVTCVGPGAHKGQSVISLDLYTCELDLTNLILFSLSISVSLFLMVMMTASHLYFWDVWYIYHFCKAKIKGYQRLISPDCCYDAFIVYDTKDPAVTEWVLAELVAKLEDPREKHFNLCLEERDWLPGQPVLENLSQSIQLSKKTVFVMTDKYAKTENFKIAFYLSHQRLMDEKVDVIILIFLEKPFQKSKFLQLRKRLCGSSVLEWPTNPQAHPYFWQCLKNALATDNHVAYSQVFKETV
Method: (§1) TLR7/8/9 Inhibition Reporter Assays
(§2) HEK-Blue™-cells (Invivogen) overexpressing human TLR7, TLR8 or TLR9 receptors were used for screening inhibitors of these receptors using an inducible SEAP (secreted embryonic alkaline phosphatase) reporter gene under the control of the IFN-β minimal promoter fused to five NF-κB and AP-1-binding sites. Briefly, cells are seeded into Greiner 384 well plates (15000 cells per well for TLR7, 20,000 for TLR8 and 25,000 for TLR9) and then treated with test compounds in DMSO to yield a final dose response concentration range of 0.05 nM-50 μM. After a 30 minute compound pre-treatment at room temperature, the cells are then stimulated with a TLR7 ligand (gardiquimod at a final concentration of 7.5 μM), TLR8 ligand (R848 at a final concentration of 15.9 μM) or TLR9 ligand (ODN2006 at a final concentration of 5 nM) to activate NF-κB and AP-1 which induce the production of SLA After a 22 hour incubation at 37° C., […], SEAP levels are determined with the addition of HEK-Blue™ Detection reagent (Invivogen), a cell culture medium that allows for detection of SLAP, according to manufacturer's specifications. The percent inhibition is determined as the % reduction in the HEK-Blue signal present in wells treated with agonist plus DMSO alone compared to wells treated with a known inhibitor.

[2] = target: T2, human TLR8 (Homo sapiens, UniProt Q9NR97); experiment: TLR8 inhibition reporter assay (HEK-Blue cells, SEAP reporter, R848 stimulation); details: HEK-Blue cells overexpressing human TLR8, SEAP reporter, R848 15.9 μM
T2 construct: host or cells: HEK-Blue cells
T2 sequence (Q9NR97 27-1041): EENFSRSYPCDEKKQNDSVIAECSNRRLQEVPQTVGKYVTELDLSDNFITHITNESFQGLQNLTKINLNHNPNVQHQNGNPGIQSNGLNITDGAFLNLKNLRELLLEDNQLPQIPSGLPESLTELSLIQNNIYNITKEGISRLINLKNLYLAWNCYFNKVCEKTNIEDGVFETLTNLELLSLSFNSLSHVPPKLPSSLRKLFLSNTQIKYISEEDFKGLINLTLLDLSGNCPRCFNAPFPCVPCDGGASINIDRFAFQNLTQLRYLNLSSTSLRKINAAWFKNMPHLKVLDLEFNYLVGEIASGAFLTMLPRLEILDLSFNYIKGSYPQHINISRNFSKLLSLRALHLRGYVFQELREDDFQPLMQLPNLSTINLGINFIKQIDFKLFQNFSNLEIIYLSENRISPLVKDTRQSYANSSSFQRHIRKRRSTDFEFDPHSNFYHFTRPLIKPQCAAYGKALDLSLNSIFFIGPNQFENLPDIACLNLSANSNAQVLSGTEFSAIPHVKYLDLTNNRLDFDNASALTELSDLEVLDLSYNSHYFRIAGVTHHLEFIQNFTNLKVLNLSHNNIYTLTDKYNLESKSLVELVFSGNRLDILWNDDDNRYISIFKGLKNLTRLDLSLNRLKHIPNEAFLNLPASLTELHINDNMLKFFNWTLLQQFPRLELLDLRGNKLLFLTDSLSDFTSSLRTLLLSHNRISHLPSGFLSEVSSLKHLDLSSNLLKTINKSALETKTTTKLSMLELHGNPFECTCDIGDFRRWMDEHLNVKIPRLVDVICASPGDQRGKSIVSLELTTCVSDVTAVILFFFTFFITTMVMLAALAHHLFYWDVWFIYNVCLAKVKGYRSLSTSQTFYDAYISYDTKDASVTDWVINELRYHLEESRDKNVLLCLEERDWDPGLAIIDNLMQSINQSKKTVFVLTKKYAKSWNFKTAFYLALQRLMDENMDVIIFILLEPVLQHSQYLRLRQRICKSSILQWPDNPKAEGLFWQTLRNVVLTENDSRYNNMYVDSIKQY
Method: as §1, §2

[3] = target: T3, human TLR9 (Homo sapiens, UniProt Q9NR96); experiment: TLR9 inhibition reporter assay (HEK-Blue cells, SEAP reporter, ODN2006 stimulation); details: HEK-Blue cells overexpressing human TLR9, SEAP reporter, ODN2006 5 nM
T3 construct: host or cells: HEK-Blue cells
T3 sequence (Q9NR96 26-1032): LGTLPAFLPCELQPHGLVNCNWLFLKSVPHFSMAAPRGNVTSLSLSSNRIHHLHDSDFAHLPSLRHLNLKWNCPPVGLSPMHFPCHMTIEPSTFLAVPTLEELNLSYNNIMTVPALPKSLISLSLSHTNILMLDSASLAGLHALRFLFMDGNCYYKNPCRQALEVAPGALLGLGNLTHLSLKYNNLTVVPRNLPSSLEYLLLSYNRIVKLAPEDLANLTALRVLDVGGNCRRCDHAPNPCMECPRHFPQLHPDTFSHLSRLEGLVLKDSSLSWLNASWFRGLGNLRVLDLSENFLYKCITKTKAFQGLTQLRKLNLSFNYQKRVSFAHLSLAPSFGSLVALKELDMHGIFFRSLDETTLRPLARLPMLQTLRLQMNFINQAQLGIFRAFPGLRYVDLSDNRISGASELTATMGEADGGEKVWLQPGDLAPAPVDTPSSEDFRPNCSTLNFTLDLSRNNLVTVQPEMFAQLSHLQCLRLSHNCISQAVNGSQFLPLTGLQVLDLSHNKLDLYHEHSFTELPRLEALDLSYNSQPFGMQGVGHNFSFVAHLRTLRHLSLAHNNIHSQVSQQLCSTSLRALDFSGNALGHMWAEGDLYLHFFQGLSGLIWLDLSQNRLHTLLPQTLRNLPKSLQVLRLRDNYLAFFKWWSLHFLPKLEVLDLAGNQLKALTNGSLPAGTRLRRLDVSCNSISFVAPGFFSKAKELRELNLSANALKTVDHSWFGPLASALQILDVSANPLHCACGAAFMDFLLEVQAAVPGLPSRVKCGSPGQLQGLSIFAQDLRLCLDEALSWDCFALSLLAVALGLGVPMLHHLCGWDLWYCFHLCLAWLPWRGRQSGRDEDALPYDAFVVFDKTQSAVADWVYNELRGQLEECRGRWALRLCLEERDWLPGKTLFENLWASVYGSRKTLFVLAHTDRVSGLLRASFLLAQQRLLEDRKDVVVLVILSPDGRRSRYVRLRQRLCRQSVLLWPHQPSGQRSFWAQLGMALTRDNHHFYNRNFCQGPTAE
Method: as §1, §2

Compound	IC50 [1] [nM]	IC50 [2] [nM]	IC50 [3] [nM]
Cc1cc(-c2[nH]nc(C3CCC(N4CCOCC4)CC3)c2C(C)C)cn2ncnc12 (single isomer, unassigned) [Example 291]	7.65	0.39	16800
Cc1cc(-c2[nH]nc(-c3cnc(N(C)C)cn3)c2C(C)C)cn2ncnc12 [Example 236]	1.36	18.7	25400
COc1ccc(-c2[nH]nc(C(=O)NC3CCN(C(C)C)CC3)c2C(C)C)cc1OC [Example 34]	4.44	4.94	> 50000
Cc1cc(-c2[nH]nc(C(=O)N[C@H]3CC[C@H](NC4CCOCC4)CC3)c2C(C)C)cn2ncnc12 [Example 116]	3.11	1.91	3880
Cc1cc(-c2[nH]nc(-c3ccc(C4CCN(C)CC4)nc3)c2C(C)C)cn2ncnc12 [Example 359]	1120	> 3130	> 50000
COCCN1CCC(c2ccc(-c3n[nH]c(-c4cc(OC)c5ncnn5c4)c3C(C)C)cc2)CC1 [Example 318, 6-(4-isopropyl-3-(4-(1-(2-methoxyethyl)piperidin-4-yl)phenyl)-1H-pyrazol-5-yl)-8-methoxy-[1,2,4]triazolo[1,5-a]pyridine]	6.23	0.83	21600
COCCN(C)C1CCC(NC(=O)c2n[nH]c(-c3cc(C)c4ncnn4c3)c2C(C)C)CC1 (stereo not drawn) [Example 128]	1.21	8.29	13400
Cc1cc(-c2[nH]nc(C(=O)NC3CCC(NC4(C)COC4)CC3)c2C(C)C)cn2ncnc12 (stereo not drawn) [Example 123]	5.09	16.8	6290
Cc1cc(-c2[nH]nc(C(=O)NC3CCN(C(C)CS(C)(=O)=O)CC3)c2C(C)C)cn2ncnc12 (stereo not drawn) [Example 174, 4-isopropyl-5-(8-methyl-[1,2,4]triazolo[1,5-a]pyridin-6-yl)-N-(1-(1-(methylsulfonyl)propan-2-yl)piperidin-4-yl)-1H-pyrazole-3-carboxamide]	1.84	3.13	16000
COc1cc(-c2[nH]nc(-c3cnc(C4CCN(CCF)CC4)cn3)c2C(C)C)cn2ncnc12 [Example 398]	137	365	> 50000
Cc1cc(-c2[nH]nc(-c3ccc(C4CCNCC4)nc3)c2C(C)C)cn2ncnc12 [Example 340]	4.64	3.38	5220
Cc1cc(-c2[nH]nc(C(=O)N[C@H]3CC[C@H](N(CCC(C)C)CCC(C)C)CC3)c2C(C)C)cn2ncnc12 [Example 108]	1.34	4.49	5700
Cc1cc(-c2[nH]nc(CNC3CCNCC3)c2C(C)C)cn2ncnc12 [Example 187]	10.4	4.25	8720
Cc1cc(-c2[nH]nc(C(=O)N3CCC(N)CC3)c2C(C)C)cn2ncnc12 [Example 55]	2.99	1.15	> 50000
Cc1cc(-c2[nH]nc(-c3cn4c(n3)CNCC4)c2C(C)C)cn2ncnc12 [Example 219]	637	713	46200
Cc1cc(-c2[nH]nc(C(=O)N[C@H]3CC[C@H](N)CC3)c2C(C)C)cn2ncnc12 [Example 46]	0.57	0.11	2500
Cc1cc(-c2[nH]nc(-c3nc4c(s3)CN(C3CCN(C(C)C)CC3)CC4)c2C(C)C)cn2ncnc12 [Example 254]	26.8	22.7	29200
CCCN1CCC(c2ccc(-c3n[nH]c(-c4cc(OC)c5ncnn5c4)c3C(C)C)nc2)CC1 [Example 349]	91	1.85	> 50000
Cc1cc(-c2[nH]nc(C(=O)NC3CCN(CC(=O)N(C)C)CC3)c2C(C)C)cn2ncnc12 [Example 176, N-(1-(2-(dimethylamino)-2-oxoethyl)piperidin-4-yl)-4-isopropyl-5-(8-methyl-[1,2,4]triazolo [1,5-a]pyridin-6-yl)-1H-pyrazole-3-carboxamide]	23.3	23.7	9580
CNCc1n[nH]c(-c2cc(C)c3ncnn3c2)c1C(C)C [Example 185]	7.42	3.38	23000
Cc1cc(-c2[nH]nc(C(=O)N[C@H]3CC[C@@H](N(C)C)CC3)c2C(C)C)cn2ncnc12 [Example 84]	0.9	0.84	9110
